Laboratory results reported in ChEMBL document CHEMBL5380844, “Discovery of a Novel, Potent, Orally Active, and Safe Inhibitor Targeting Human Mitochondrial RNA Polymerase” (J Med Chem, 2023).
The source made the active and inactive calls. No cut-off for these calls is given here.

Tests used:
A2780 [1] = test: Effect on SDHB level in human A2780 cells at upto 500 nM by Western blot analysis; type: functional, cell-based
A2780 [2] = test: Antitumor activity against human A2780 cells xenografted in BALB/c nude mouse model assessed as reduction in tumor weight at 50 mg/kg, po administered daily and measured after 27 days relative to control; type: functional; parameters: scale not given: the % may be the effect or the level left; conditions: time 27 day
A2780 [3] = test: Induction of apoptosis in human A2780 cells assessed as necrotic cells at 200 nM incubated for 96 hrs by Annexin-V/FITC and PI staining based flow cytometry analysis (reference value: 2.07%); type: functional
NCI-H1975 = test: Antiproliferative activity against human NCI-H1975 cells incubated for 168 hrs by SRB method; type: functional, cell-based; conditions: NCI-H1975, 168 h
A2780 [4] = test: Induction of apoptosis in human A2780 cells assessed as necrotic cells at 50 nM incubated for 96 hrs by Annexin-V/FITC and PI staining based flow cytometry analysis (reference value: 2.07%); type: functional
Cytochrome P450 2C19 = Cytochrome P450 2C19 (Homo sapiens, UniProt P33261); test: Inhibition of CYP2C19 (unknown origin) using S-mephenytoin as substrate in presence of NADPH by LC/MS/MS analysis; type: ADME
Cytochrome P450 2C19, sequence (P33261 whole entry): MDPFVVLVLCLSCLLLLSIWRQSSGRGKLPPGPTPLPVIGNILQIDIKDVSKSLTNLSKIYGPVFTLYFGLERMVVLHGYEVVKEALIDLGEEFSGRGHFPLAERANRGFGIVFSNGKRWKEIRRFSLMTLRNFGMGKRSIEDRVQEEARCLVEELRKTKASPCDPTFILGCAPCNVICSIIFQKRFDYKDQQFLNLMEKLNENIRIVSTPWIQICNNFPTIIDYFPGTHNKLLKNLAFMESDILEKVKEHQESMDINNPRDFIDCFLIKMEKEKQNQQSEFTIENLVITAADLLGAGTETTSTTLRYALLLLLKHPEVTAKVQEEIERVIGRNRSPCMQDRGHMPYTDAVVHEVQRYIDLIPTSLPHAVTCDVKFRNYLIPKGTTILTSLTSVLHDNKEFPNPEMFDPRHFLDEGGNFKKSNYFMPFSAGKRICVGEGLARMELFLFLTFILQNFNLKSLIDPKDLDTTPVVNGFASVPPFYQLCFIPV

A549 = test: Antiproliferative activity against human A549 cells incubated for 168 hrs by SRB method; type: functional, cell-based; conditions: A549, 168 h
A2780 [5] = test: Inhibition of colony formation in human A2780 cells assessed as reduction in number of colonies at upto 500 nM incubated for 14 days by crystal violet staining based analysis; type: functional, cell-based; conditions: time 14.0 day
A2780 [6] = test: Antitumor activity against human A2780 cells xenografted in BALB/c nude mouse model assessed as decrease in tumor volume administered po daily and measured after 27 days; type: functional, organism-based; conditions: dose 50-100 mg/kg, time 27.0 day
A2780 [7] = test: Inhibition of colony formation in human A2780 cells assessed as appearance of smaller colonies at upto 500 nM incubated for 14 days by crystal violet staining based analysis; type: functional, cell-based; conditions: time 14.0 day
A2780 [8] = test: Induction of cell cycle arrest in human A2780 cells assessed as accumulation of cells at S phase at 200 nM measured after 96 hrs by PI staining based flow cytometry analysis (reference value: 14.7%); type: functional
[9] = Half life in ICR mouse at 10 mg/kg, po measured upto 24 hrs by LC-MS/MS analysis; type: ADME, organism-based; conditions: in vivo
A2780 [10] = test: Induction of apoptosis in human A2780 cells assessed as necrotic cells at 100 nM incubated for 96 hrs by Annexin-V/FITC and PI staining based flow cytometry analysis (reference value: 2.07%); type: functional
MDA-MB-468 = test: Antiproliferative activity against human MDA-MB-468 cells incubated for 168 hrs by SRB method; type: functional, cell-based; conditions: MDA-MB-468, 168 h
A2780 [11] = test: Inhibition of MT-ND5 expression in human A2780 cells at 100 nM incubated for 12 hrs by RNA sequencing analysis; type: functional, cell-based
A2780 [12] = test: Inhibition of MT-ND1 expression in human A2780 cells at 100 nM incubated for 12 hrs by RNA sequencing analysis; type: functional, cell-based
A2780 [13] = test: Inhibition of MT-ND6 expression in human A2780 cells at 100 nM incubated for 12 hrs by RNA sequencing analysis; type: functional, cell-based
A2780 [14] = test: Inhibition of colony formation in human A2780 cells at 500 nM incubated for 14 days by crystal violet staining based analysis; type: functional, cell-based; conditions: time 14.0 day
A2780 [15] = test: Induction of apoptosis in human A2780 cells assessed as early apoptotic cells at 100 nM incubated for 96 hrs by Annexin-V/FITC and PI staining based flow cytometry analysis (reference value: 14.14%); type: functional
[16] = Acute toxicity in Balb/c mouse assessed as effect on kidney 100 mg/kg measured after 27 days by H and E staining based analysis; type: organism-based; conditions: in vivo, 648 h, time 27 day
Cytochrome P450 2C9 = Cytochrome P450 2C9 (Homo sapiens, UniProt P11712); test: Inhibition of CYP2C9 (unknown origin) using diclofenac as substrate in presence of NADPH by LC/MS/MS analysis; type: ADME
Cytochrome P450 2C9, sequence (P11712 whole entry): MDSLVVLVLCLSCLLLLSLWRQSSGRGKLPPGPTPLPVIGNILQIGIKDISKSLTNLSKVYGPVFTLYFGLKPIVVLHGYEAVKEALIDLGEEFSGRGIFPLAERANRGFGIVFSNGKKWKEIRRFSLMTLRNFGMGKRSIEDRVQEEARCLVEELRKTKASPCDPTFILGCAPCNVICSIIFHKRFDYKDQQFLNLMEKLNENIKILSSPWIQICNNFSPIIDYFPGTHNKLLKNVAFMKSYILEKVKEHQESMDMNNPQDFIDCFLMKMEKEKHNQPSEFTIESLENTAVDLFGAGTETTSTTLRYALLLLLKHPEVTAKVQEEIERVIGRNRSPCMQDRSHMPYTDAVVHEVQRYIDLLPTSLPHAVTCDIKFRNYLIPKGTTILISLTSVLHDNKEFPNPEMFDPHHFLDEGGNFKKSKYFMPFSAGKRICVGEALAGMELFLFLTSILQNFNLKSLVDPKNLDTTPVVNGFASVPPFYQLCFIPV

A2780 [17] = test: Inhibition of MT-CO2 expression in human A2780 cells at 100 nM incubated for 12 hrs by RNA sequencing analysis; type: functional, cell-based
A2780 [18] = test: Inhibition of mitochondrial transcript in human A2780 cells assessed as decrease in ND1 expression by RT-qPCR analysis; type: functional, cell-based
A2780 [19] = test: Inhibition of colony formation in human A2780 cells assessed as decrease in size of colonies at 10 nM incubated for 14 days by crystal violet staining based analysis; type: functional, cell-based; conditions: time 14.0 day
A2780 [20] = test: Induction of apoptosis in human A2780 cells assessed as late apoptotic cells at 200 nM incubated for 96 hrs by Annexin-V/FITC and PI staining based flow cytometry analysis (reference value: 3.79%); type: functional
[21] = Efflux ratio of apparent permeability across basolateral to apical side over apical to basolateral side in human Caco2 cells at 3 uM incubated for 2 hrs by LC-MS/MS analysis; type: ADME, cell-based; conditions: Caco-2
A2780 [22] = test: Induction of apoptosis in human A2780 cells assessed as early apoptotic cells at 200 nM incubated for 96 hrs by Annexin-V/FITC and PI staining based flow cytometry analysis (reference value: 14.14%); type: functional
MDA-MB-231 = test: Antiproliferative activity against human MDA-MB-231 cells incubated for 168 hrs by SRB method; type: functional, cell-based; conditions: MDA-MB-231, 168 h
DLD-1 = test: Antiproliferative activity against human DLD-1 cells incubated for 168 hrs by SRB method; type: functional, cell-based; conditions: DLD-1, 168 h
[23] = Apparent permeability across apical to basolateral side in human Caco-2 cells at 3 uM incubated for 2 hrs by LC-MS/MS analysis; type: ADME, cell-based
A2780 [24] = test: Inhibition of MT-ND4L expression in human A2780 cells at 100 nM incubated for 12 hrs by RNA sequencing analysis; type: functional, cell-based
A2780 [25] = test: Induction of apoptosis in human A2780 cells assessed as viable cells at 50 nM incubated for 96 hrs by Annexin-V/FITC and PI staining based flow cytometry analysis (reference value: 89.2%); type: functional; conditions: read-out: Activity
[26] = Cmax in ICR mouse at 10 mg/kg, po measured upto 24 hrs by LC-MS/MS analysis; type: ADME, organism-based; parameters: time < 24 hrs, dose 10 mg/kg, route po; conditions: in vivo
[27] = MRT in ICR mouse at 1 mg/kg, iv measured upto 24 hrs by LC-MS/MS analysis; type: ADME, organism-based; conditions: in vivo
A2780 [28] = test: Antitumor activity against human A2780 cells xenografted in BALB/c nude mouse model assessed as induction of tumor shrinkage 100 mg/kg by H and E staining based immunohistochemical analysis; type: functional, organism-based
[29] = Half life in ICR mouse at 1 mg/kg, iv measured upto 24 hrs by LC-MS/MS analysis; type: ADME, organism-based; conditions: in vivo
Cytochrome P450 2D6 = Cytochrome P450 2D6 (Homo sapiens, UniProt P10635); test: Inhibition of CYP2D6 (unknown origin) using bufuralol as substrate in presence of NADPH by LC/MS/MS analysis; type: ADME
Cytochrome P450 2D6, sequence (P10635 whole entry): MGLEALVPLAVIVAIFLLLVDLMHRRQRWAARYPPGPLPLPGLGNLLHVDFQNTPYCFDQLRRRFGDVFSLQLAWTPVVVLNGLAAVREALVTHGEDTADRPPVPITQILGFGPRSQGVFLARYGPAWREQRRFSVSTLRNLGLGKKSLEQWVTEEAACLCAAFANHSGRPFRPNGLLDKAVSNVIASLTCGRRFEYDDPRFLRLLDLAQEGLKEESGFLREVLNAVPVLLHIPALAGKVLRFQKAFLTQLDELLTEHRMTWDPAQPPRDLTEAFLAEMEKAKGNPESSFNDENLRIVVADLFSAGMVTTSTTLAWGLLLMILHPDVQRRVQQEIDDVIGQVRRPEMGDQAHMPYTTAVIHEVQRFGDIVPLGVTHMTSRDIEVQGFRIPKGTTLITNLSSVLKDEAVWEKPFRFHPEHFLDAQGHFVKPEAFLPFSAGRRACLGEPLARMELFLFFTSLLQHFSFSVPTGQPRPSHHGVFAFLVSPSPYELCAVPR

A2780 [30] = test: Inhibition of colony formation in human A2780 cells assessed as decrease in colony quantity at 10 nM incubated for 14 days by crystal violet staining based analysis; type: functional, cell-based; conditions: time 14.0 day
NCI-H3122 = test: Antiproliferative activity against human NCI-H3122 cells incubated for 168 hrs by SRB method; type: functional, cell-based; conditions: NCI-H3122, 168 h

For `Cc1ccc(-c2cc(=O)oc3cc(O[C@H](C)C(=O)N4CC5CCC(C4)N5C)ccc23)c(C)c1`, the Activity (A2780 [1]) was “inactive”, the Activity (A2780 [2]) was 54.82% and the Activity (A2780 [3]) was 4.01%. It also gave an IC50 (NCI-H1975) of 108 nM, an Activity (A2780 [4]) of 2.29% and an IC50 (Cytochrome P450 2C19) of 31500 nM. For the same molecule, the IC50 (A549) was 721 nM, the inhibition (A2780 [5]) was “Active” and the Activity (A2780 [6]) was “Dose-Dependent Effect”. The inhibition (A2780 [7]) was “Active”, the Activity (A2780 [8]) was 9.07% and the half-life [9] was 2.3 h. For the same molecule, the Activity (A2780 [10]) was 4.46%, the IC50 (MDA-MB-468) was 132 nM and the inhibition (A2780 [11]) was “Active”. For the same molecule, the inhibition (A2780 [12]) was “Active”, the inhibition (A2780 [13]) was “Active” and the inhibition (A2780 [14]) was “inactive”. For the same molecule, the Activity (A2780 [15]) was 0.28%, the Activity [16] was “Non-Toxic” and the IC50 (Cytochrome P450 2C9) was 34700 nM. For the same molecule, the inhibition (A2780 [17]) was “Active”, the inhibition (A2780 [18]) was “Active” and the inhibition (A2780 [19]) was “Active”. For the same molecule, the Activity (A2780 [20]) was 4.58%, the efflux ratio at 2 h, 3 µM [21] was 1.2 and the Activity (A2780 [22]) was 0.73%. The IC50 (MDA-MB-231) was > 10000 nM, the IC50 (DLD-1) was 69 nM and the Papp A→B at 2 h, 3 µM [23] was 6.93 ×10⁻⁶ cm/s. For the same molecule, the inhibition (A2780 [24]) was “Active”, the viability at 0.05 µM (A2780 [25]) was 92.3% and the Cmax [26] was 369 ng/mL. The MRT [27] was 2.66 h, the Activity (A2780 [28]) was “Active” and the half-life [29] was 3.12 h. The IC50 (Cytochrome P450 2D6) was > 40000 nM, the inhibition (A2780 [30]) was “Active” and the IC50 (NCI-H3122) was > 10000 nM.
